The assay relates to S. aureus Oxford, S. aureus WCUH29, S. aureus Carter 37, E. faecalis I, M. catarrhalis Ravasio, S. pneumoniae R6. The assay is described as follows: MIC of test compounds against various organisms. In kind it is cell-based. The settings on record: against one or more of S. aureus Oxford. As for the experimental part: The MIC (μg/ml) of test compounds against various organisms was determined: S. aureus Oxford, S. aureus WCUH29, S. aureus Carter 37, E. faecalis I, M. catarrhalis Ravasio, S. pneumoniae R6.

Where two headings read alike, the source gives them in different places.

Regarding `CCCCCCCN1CCN(C[C@H](O)c2ccnc3ccc(OC)cc23)[C@H](CC(=O)O)C1.O=C(O)C(F)(F)F.O=C(O)C(F)(F)F.O=C(O)C(F)(F)F` [Example 11, [3R]-3-Carboxymethyl-1-heptyl-4-[2-(R)-hydroxy-2-(6-methoxyquinolin-4-yl)ethyl]piperazine tris(trifluoroacetate)], where the note is “read-out: MIC”, the MIC was at most 16 µg/mL.
With `CCCCCCCN1CCN(CC(O)c2ccnc3ccc(OC)cc23)[C@@H](CCO)C1.O=C(O)C(=O)O.O=C(O)C(=O)O` (stereo partly drawn) [Example 12, [3S]-1-Heptyl-3-[2-hydroxyetbyl]-4-[2-(R,S)hydroxy-2-(6-methoxyquinolin-4-yl)ethyl]piperazine dioxalate], the minimum inhibitory concentration (MIC) result is recorded as “less than or equal to 1 μg/ml”.
Regarding `COc1ccc2nccc([C@@H](O)CN3CCN(CCCOc4ccccc4)CC3)c2c1` [Example 33, 1-(3-phenoxypropyl)-4-[2-(R)-hydroxy-2-(6-methoxyquinolin-4-yl)ethyl]piperazine], the MIC (read-out: MIC) was at most 16 µg/mL.

The term MIC denotes the least concentration at which growth counts as inhibited.

Values taken from patent publication US6911442B1, “Quinoline derivatives as antibacterials” (SmithKline Beecham p.l.c., priority 1999, dated 2005).
